Laboratory results as given in US20250270206A1, “COMPOSITIONS AND METHODS FOR INHIBITION OF RAS” (TheRas, Inc., priority 2022, published 2025).

Legend:
[1] = biological target: T1, GppNHp-loaded KRAS4b (amino acids 1-169) G12C/C118S (Homo sapiens, UniProt P01116, C118S/G12C); test: MALDI-TOF MS covalent Cys12 modification, GppNHp-loaded KRAS G12C; format: binding; settings: 15 minutes reaction time, 1 μM protein, 1:2.5 protein to compound ratio
T1 construct: KRAS4b (amino acids 1-169) G12C/C118S protein; made in house
Procedure: (§1) MALDI-TOF MS analysis was performed using 1 μM protein target, and 1:2.5 protein to compound ratio was used.
(§2) Reaction: 1 μM of GppNHp, GTP, or GDP-loaded KRAS4b (amino acids 1-169) G12C/C118S protein (produced in-house by Protein Expression Laboratory, FNLCR/Leidos Biomed) in 20 mM 4-(2-hydroxyethyl)-1-piperazineethanesulfonic acid (HEPES) buffer containing 150 mM NaCl, 1 mM MgCl2, pH 7.3 was prepared freshly before assay. Ten-μL aliquots of protein were dispensed onto low volume 384-well plate, then 375 nL DMSO, and 25 nL of tested compounds from 5 mM DMSO stocks were added to appropriate wells using ECHO 555 acoustic liquid handler (Labcyte Inc.). For each reaction/assay, three blanks were prepared by mixing 10 μL of protein solution with 400 nL DMSO. The contents of the wells were carefully mixed by aspiration, and then each plate was sealed with an adhesive cover, centrifuged at 2000 g for 1 minute, and kept in the dark at room temperature until 5 min, 15 min, 30 min, 2 h, or 6 h collections.
(§3) Target pretreatment: Before each assay MALDI target (Bruker MPT 384 ground steel BC) was pre-treated by pipetting on each spot 0.75 μL of saturated sinapinic acid in acetonitrile (ACN).
(§4) Sample preparation: At collection time point, 2 μL of reaction mixtures were pipetted out into 20 μL MALDI matrix solution (saturated solution of sinapinic acid in 1:1 ACN:water solution containing 0.75% trifluoroacetic acid (TFA)) deposited on 384 well polypropylene plate. Resulting solution was mixed by aspiration, centrifuged at 2000 g for 1 minute, then 1 μL aliquots were dispensed on pre-treated MALDI target using Beckman Coulter Biomek FX^P 96/384-Span-8 Laboratory Automation Workstation. Finally, the MALDI target was dried under mild vacuum to produce spots with fine crystalline structure.
(§5) Measurements: MALDI-TOF measurements were performed on a Bruker Daltonics rapifleX Tissuetyper TOF-TOF mass spectrometer using linear mode and mass range from 18.6 to 21.6 kDa. Detector gain was set to 3.3× (483 V), sample rate to 5 GS/s, real time smoothing to medium (175 MHz), laser smart beam pattern was set to: “MS Thin Layer M5”, and the laser frequency was 10000 Hz. Spectra were automatically collected using custom AutoXecute method. Laser power was auto adjusted using fuzzy control. The peak selection range was set to be between 19000 and 21500 Da. Peak evaluation uses half width parameter set to be smaller than 40 Da for processed spectrograms (centroid peak detection: smoothed by SavitzkyGolay algorithm using 7 m/z width and 2 cycles; baseline was subtracted using median algorithm with flatness 1 and median level 0.01). Fuzzy control used Proteins/Oligonucleotides protocol with minimum half width 1/10 times above threshold. Up to 40000 satisfactory shots were collected in 10000 shot steps. Dynamic termination was implemented to finish data collection when peak signal/noise ratio reached a value of 50.
(§6) Spectra processing: Spectra were smoothed by SavitzkyGolay algorithm using 7 m/z width and three cycles. Centroid peak detection algorithm was used with signal to noise threshold set to 6, relative intensity threshold 4%, peak width 10 m/z and median baseline subtraction using flatness of 1 and median level of 0.01. Peak intensity and area under the peak were evaluated and recorded for all peaks between 19,300 Da and 21,550 Da.
(§7) Calculation of percent modification: Percent modification was calculated as a ratio of peak height for protein modified by compound to sum of peak height of remaining protein plus peak height for protein modified by compound. If multiple modifications were observed each was calculated as a ratio of peak height for given modification versus sum of peak heights for all observed protein species. Data reported in Table 5 are from the 15 minutes reaction time point.

[2] = biological target: T2, GDP-loaded KRAS4b (amino acids 1-169) G12C/C118S (Homo sapiens, UniProt P01116, C118S/G12C); test: MALDI-TOF MS covalent Cys12 modification, GDP-loaded KRAS G12C; format: binding; settings: 15 minutes reaction time, 1 μM protein, 1:2.5 protein to compound ratio
T2 construct: KRAS4b (amino acids 1-169) G12C/C118S protein; made in house
Procedure: as §1, §2, §3, §4, §5, §6, §7

[3] = biological target: T3, Avi-KRAS G12C (1-169) GppNHp/RAF1 RBD-3×FLAG (52-151) (Homo sapiens, UniProt P01116, G12C); test: KRAS G12C-effector (RAF1 RBD) protein:protein interaction HTRF disruption assay; format: biochemical; settings: PPI HTRF
T3 construct: Avi-KRAS G12C (1-169) GppNHp
Procedure: A protein:protein interaction (PPI) Homogeneous Time Resolved Fluorescence (HTRF) assay was used to determine the effectiveness of compounds of the present disclosure in disrupting KRAS G12C protein and effector (RAF1) binding.
The HTRF assay used the following reagents and proteins: 50 nM Avi-KRAS G12C (1-169) GppNHp/RAF1 RBD-3×FLAG (52-151); 75 nM Avi-RAF1 RBD-3×FLAG; Assay Buffer: 50 mM Tris pH 7.5, 100 mM NaCl, 5 mM MgCl2, 0.1% BSA, 0.01% Tween 20, 10% DMSO; Bead Buffer: 50 mM Tris pH 7.5, 0.01% Tween 20; Assay volume: 20 μL (384 well plate-low volume format); and Compound titration: 30-0.02 μM, 3× dilution series.
The HTRF assay employed the following protocol:
Compounds were dispensed in assay plate (384-well, Grenier Bione #784075) using Echo (model 555) with dose response settings: 200 nL final volume, titration from 100 μM as a 10-point dilution series. KRAS proteins were prepared in assay buffer, and dispensed on plates, 5 μL per well, then incubated for 1 h at room temperature, with 700 rpm shaking. RAF1 RBD were prepared in assay buffer, dispensed onto plates, 5 μL per well, and then incubated for 1 h at room temperature, with 700 rpm shaking. Reagent mix was then prepared and dispensed on plates, 10 μL per well, and then incubated for 1 h at room temperature, with 700 rpm shaking.
Plates were analyzed on an Envision plate reader using the following setting: Excitation 320 nm, Bandwidth 75 nm, Emission 615 nm, Bandwidth 85 nm; Gain 100%; Flashes 100; Lag 60 μs. Data was reported as percentage of activity, with DMSO as 100%. Data was plotted and analyzed using Prism 8.

[4] = system: pERK in NCI-H358 cells; test: Cell-based pERK HTRF assay; settings: Homo sapiens, 0.5 h, 30 min incubation
Procedure: pERK HTRF assays (Perkin Elmer) were used to determine the effectiveness of compounds of the present disclosure in disrupting KRAS G12C protein/effector signaling in cells.
On Day 1, cells (NCI-H358) were seeded into 96-well plates at 4×10^4 cells/well in complete growth media (RPMI, 10% FBS).
On Day 2, cells were treated with compounds at 0.25% DMSO. The source plate was created with compounds diluted in media at 5-fold the final assay concentration. The compounds were run in a 9-point concentration curve starting at 75 μM, with a 3-fold dilution between concentrations. 20 μL was transferred onto the cell plates (final volume in wells was 100 μL). Plates were harvested after 30 min incubation by aspirating media and adding kit-supplied 1× supplemented lysis buffer to all wells (75 μL per well). Plates were then placed on a plate shaker and incubated at 850 rpm for an additional 30 min.
Antibody mixture solution was prepared by diluting aliquoted d2 and Eu Cryptate antibodies 1:20 in kit supplied detection buffer, then mixed the diluted antibodies solutions (1:1 v:v). 4 μL of this solution was then added to a 384-well detection plate (Perkin Elmer; 6008230).
Samples were homogenized by pipetting up and down and then transferred (16 μL of cell lysates) from the 96-well cell culture plate to two wells of the HTRF 384-well detection plate containing the antibody solution. Plates were centrifuged (524 g for 1 min) and allowed to incubate between 4 and 24 h at room temperature. Maximum signal is reached after 4 h incubation time and remains stable over a period of 24 hours. Therefore, readings can be made between 4 and 24 h of incubation. Plates were centrifuged again (524 g for 1 min) and analyzed on the EnVision plate reader using the following settings: Excitation 320 nm, Bandwidth 75 nm; Emission 615 nm, Bandwidth 85 nm; Gain 100%; Flashes 100; Lag 60 μs.

[5] = biological target: T4, GTP-loaded KRAS4b (amino acids 1-169) G12C/C118S (Homo sapiens, UniProt P01116, C118S/G12C); test: MALDI-TOF MS covalent Cys12 modification, GTP-loaded KRAS G12C; format: binding; settings: 15 minutes reaction time, 1 μM protein, 1:2.5 protein to compound ratio
T4 construct: KRAS4b (amino acids 1-169) G12C/C118S protein; made in house
Procedure: as §1, §2, §3, §4, §5, §6, §7

Compound | GppNHp-KRAS G12C percent of modification [1] | GDP-KRAS G12C percent of modification [2] | IC50 [3] [µM] | IC50 [4] [µM] | GTP-KRAS G12C percent of modification [5]
C=CC(=O)N1CC[C@@H](N(C)c2nc(OC[C@@]34CCCN3C[C@H](F)C4)nc3c(F)c(-c4ccc(F)c5sc(N)nc45)ncc23)C1 [Compound 4] | A (percent of modification ≥70%) | A (percent of modification ≥70%) | ≤ 0.5 | > 1 | 
C=CC(=O)N1CCC(N(C)c2nc(OC[C@@H]3CC4(CC4)CN3C)nc3c(F)c(-c4ccc(F)c5sc(N)c(C#N)c45)ncc23)[C@H]1COC (stereo partly drawn) [Compound 21] | A (percent of modification ≥70%) | A (percent of modification ≥70%) |  | 0.1 to 1 | A (percent of modification ≥70%)
C=CC(=O)N1CC[C@@H](N(C)c2nc(OC[C@@H]3CC4(CC4)CN3C)nc3c(F)c(-c4ccc(F)c5sc(N)c(C#N)c45)ncc23)[C@H]1COC [Compound 21] |  |  | ≤ 0.5 |  | 
C=CC(=O)N1CCC(N(C)c2nc(OC[C@@H]3CCCN3C)nc3c(F)c(-c4ccc(F)c5sc(N)c(C#N)c45)ncc23)[C@H]1C (stereo partly drawn) [Compound 22] | A (percent of modification ≥70%) | A (percent of modification ≥70%) |  | 0.1 to 1 | A (percent of modification ≥70%)
C=CC(=O)N1CC[C@@H](N(C)c2nc(OC[C@@H]3CCCN3C)nc3c(F)c(-c4ccc(F)c5sc(N)c(C#N)c45)ncc23)[C@H]1C [Compound 22] |  |  | ≤ 0.5 |  | 
C=CC(=O)N1CCC(N(C)c2nc(OC[C@@H]3CC4(CC4)CN3C)nc3c(F)c(-c4ccc(F)c5sc(N)c(C#N)c45)ncc23)[C@H]1C (stereo partly drawn) [Compound 24] | A (percent of modification ≥70%) | A (percent of modification ≥70%) |  | 0.1 to 1 | A (percent of modification ≥70%)
C=CC(=O)N1CC[C@@H](N(C)c2nc(OC[C@@H]3CC4(CC4)CN3C)nc3c(F)c(-c4ccc(F)c5sc(N)c(C#N)c45)ncc23)[C@H]1C [Compound 24] |  |  | ≤ 0.5 |  | 
C=CC(=O)N1CCC(N(C)c2nc(OC[C@@H]3CCCN3C)nc3c(F)c(-c4ccc(F)c5sc(N)c(C#N)c45)ncc23)[C@H]1COC (stereo partly drawn) [Compound 26] | A (percent of modification ≥70%) | A (percent of modification ≥70%) |  | 0.1 to 1 | A (percent of modification ≥70%)
C=CC(=O)N1CC[C@@H](N(C)c2nc(OC[C@@H]3CCCN3C)nc3c(F)c(-c4ccc(F)c5sc(N)c(C#N)c45)ncc23)[C@H]1COC [Compound 26] |  |  | ≤ 0.5 |  | 
C=CC(=O)N1CCC(N(C)c2nc(OCCOC)nc3c(F)c(-c4ccc(F)c5sc(N)c(C#N)c45)ncc23)[C@H]1C (stereo partly drawn) [Compound 31] | D (percent of modification <10%) | C (10%≤percent of modification <50%) |  | > 1 | D (percent of modification <10%)
C=CC(=O)N1CC[C@@H](N(C)c2nc(OCCOC)nc3c(F)c(-c4ccc(F)c5sc(N)c(C#N)c45)ncc23)[C@H]1C [Compound 31] |  |  | 0.5 to 5 |  | 
C=CC(=O)N1CCC(N(C)c2nc(OC)nc3c(F)c(-c4ccc(F)c5sc(N)c(C#N)c45)ncc23)[C@H]1C (stereo partly drawn) [Compound 32] | D (percent of modification <10%) | C (10%≤percent of modification <50%) |  | > 1 | D (percent of modification <10%)
C=CC(=O)N1CC[C@@H](N(C)c2nc(OC)nc3c(F)c(-c4ccc(F)c5sc(N)c(C#N)c45)ncc23)[C@H]1C [Compound 32] |  |  | 5 to 20 |  | 
C=CC(=O)N1CC[C@@H](N(C)c2nc(OCCO)nc3c(F)c(-c4ccc(F)c5sc(N)c(C#N)c45)ncc23)[C@H]1C [Compound 35] |  |  | 5 to 20 |  | 
C=CC(=O)N1CC[C@@H](N(C)c2ncnc3c(F)c(-c4ccc(F)c5sc(N)c(C#N)c45)ncc23)[C@H]1C [Compound 36] |  |  | 5 to 20 |  | 
